This is an account of results in PMC5827777, “Synthesis and biological evaluation of RGD and isoDGR peptidomimetic-α-amanitin conjugates for tumor-targeting” (Beilstein Journal of Organic Chemistry, 2018).

The test system of assay [1] is αVβ5 receptor. Put plainly: Inhibition of biotinylated vitronectin binding to αVβ5 receptor. Particulars: ratio of IC50 values of Table 1.
In assay [2] the target is T1, Recombinant human integrin αVβ3 (Homo sapiens, UniProt P05106+P06756).
T1 construct: purchased R&D Systems, Minneapolis, MN, USA
T1 sequence (P06756 31-992 limits assumed): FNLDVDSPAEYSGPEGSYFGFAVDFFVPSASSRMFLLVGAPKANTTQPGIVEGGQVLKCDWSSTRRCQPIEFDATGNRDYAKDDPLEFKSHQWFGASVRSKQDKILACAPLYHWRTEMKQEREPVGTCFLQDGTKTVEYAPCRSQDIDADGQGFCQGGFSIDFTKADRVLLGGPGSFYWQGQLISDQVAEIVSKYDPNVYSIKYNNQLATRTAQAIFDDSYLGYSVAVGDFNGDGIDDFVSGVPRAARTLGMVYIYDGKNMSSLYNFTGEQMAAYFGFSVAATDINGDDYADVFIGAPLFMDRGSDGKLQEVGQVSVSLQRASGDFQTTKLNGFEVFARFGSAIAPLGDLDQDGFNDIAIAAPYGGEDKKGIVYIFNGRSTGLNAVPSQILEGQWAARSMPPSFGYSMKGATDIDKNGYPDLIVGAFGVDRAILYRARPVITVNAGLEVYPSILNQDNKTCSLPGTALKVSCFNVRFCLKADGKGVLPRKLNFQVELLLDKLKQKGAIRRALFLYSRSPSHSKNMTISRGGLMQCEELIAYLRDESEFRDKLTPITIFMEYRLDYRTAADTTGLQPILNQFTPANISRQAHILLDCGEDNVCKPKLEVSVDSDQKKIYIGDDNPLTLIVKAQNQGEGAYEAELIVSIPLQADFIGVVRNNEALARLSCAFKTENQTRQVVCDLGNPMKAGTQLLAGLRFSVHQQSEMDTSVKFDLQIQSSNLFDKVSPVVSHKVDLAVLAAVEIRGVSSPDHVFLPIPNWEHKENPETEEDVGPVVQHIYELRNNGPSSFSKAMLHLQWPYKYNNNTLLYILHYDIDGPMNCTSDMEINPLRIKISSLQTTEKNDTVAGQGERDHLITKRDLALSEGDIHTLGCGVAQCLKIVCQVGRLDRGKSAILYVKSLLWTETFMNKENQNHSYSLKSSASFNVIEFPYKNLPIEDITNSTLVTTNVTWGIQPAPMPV
T1 sequence (P05106 27-718 limits assumed): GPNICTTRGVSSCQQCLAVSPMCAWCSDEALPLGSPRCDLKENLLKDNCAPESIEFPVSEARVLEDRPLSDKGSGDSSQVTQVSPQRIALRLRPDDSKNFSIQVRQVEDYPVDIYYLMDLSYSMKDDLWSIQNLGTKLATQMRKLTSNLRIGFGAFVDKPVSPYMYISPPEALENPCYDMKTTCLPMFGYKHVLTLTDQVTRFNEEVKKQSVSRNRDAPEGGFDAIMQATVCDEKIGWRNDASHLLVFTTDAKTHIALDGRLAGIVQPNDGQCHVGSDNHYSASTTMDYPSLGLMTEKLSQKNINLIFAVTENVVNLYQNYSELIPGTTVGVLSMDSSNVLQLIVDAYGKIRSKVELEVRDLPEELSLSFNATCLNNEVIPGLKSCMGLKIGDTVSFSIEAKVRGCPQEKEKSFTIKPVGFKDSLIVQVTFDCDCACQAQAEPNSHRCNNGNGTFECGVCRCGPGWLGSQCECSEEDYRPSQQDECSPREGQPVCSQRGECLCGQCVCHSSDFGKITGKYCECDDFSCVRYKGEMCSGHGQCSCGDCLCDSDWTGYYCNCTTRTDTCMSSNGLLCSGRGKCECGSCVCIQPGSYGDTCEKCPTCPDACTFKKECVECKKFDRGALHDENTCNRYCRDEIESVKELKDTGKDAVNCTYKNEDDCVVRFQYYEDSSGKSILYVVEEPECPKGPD
Also on record: method as in PMID 22517378, PMID 23424096. The following applies: free ligands, Table 1; mean ± SD of triplicate determinations; read-out: IC50 αVβ3, inhibition of biotinylated vitronectin binding; cited from earlier work.

For assay [3], the target named is αVβ5 receptor. Also on record: method as in PMID 22517378, PMID 23424096. The following applies: free ligands, Table 1; mean ± SD of triplicate determinations; read-out: IC50 αVβ5, inhibition of biotinylated vitronectin binding; cited from earlier work.

As usually defined, the IC50 is the concentration needed to halve the response being measured. With `N=C(N)NCCC[C@@H]1NC(=O)CNC(=O)C[C@@H](C(=O)O)NC(=O)C[C@H]2NC(=O)[C@H](CNC1=O)N(Cc1ccccc1)C2=O` [Ligand 3, cyclo[DKP-isoDGR]], in assay [1], the “selectivity for αVβ3 in comparison with integrin αVβ5” value is listed as 33–34 times. The figures for the IC50 in assay [2] and in assay [3] were 9.2 ± 1.1 nM and 312 ± 21 nM, respectively.
